Assay results taken from patent publication US20210038753A1, “BIOLOGICAL STERILIZATION INDICATOR WITH STERILANT RESISTANCE MODULATOR” (3M INNOVATIVE PROPERTIES COMPANY, priority 2014, published 2021).

Assays:
Assay type in all cases: cell-based
[1] = test system: Geobacillus stearothermophilus spores; test: Survival of spores (growth, pH indicator change) in modulator-treated self-contained biological indicators after H2O2 sterilant exposure (Example 1); details: for percentage of self-contained biological indicators that showed observable growth (pH indicator change): 2 minutes
Description: Tub-shaped spore carriers (polypropylene), similar to those described in International Publication No. WO2014/189716 with the exception that they were not coated with colloidal nanoparticles, were used. Liquid-cultured Geobacillus stearothermophilus spores (>10^6), were suspended in sterile water. Approximately 10 μL of the spore suspension was deposited onto the spore carriers and dried at room temperature. Aliquots (0 μL, 5 μL, or 10 μL, respectively) of a 0.5M sterile solution of L-homocysteine were deposited into the dried, spore-coated tub-shaped spore carrier. The homocysteine-coated tubs were dried at room temperature. Thus, the final dried coating on the carriers included at least 10^6 spores with 0, 2.5 or 5 micromoles of L-homocysteine, respectively.
FIG. 1. The outer container 12 was obtained from 3M ATTEST 1292 Rapid Biological Indicators (available from 3M Company; St. Paul, Minn.). The cap was obtained from 3M ATTEST 1261 Biological Indicators (3M Company). The nutrient medium was from 3M ATTEST 1292 ampoules with added methionine (5 g/L). Five individual self-contained biological indicators were exposed to different concentrations (listed in Table 3) of hydrogen peroxide for 2 minutes in a STERRAD NX sterilizer. After exposing them to the sterilization process, all of the self-contained biological indicators were activated by crushing the ampoule inside the outer container.

[2] = test system: Geobacillus stearothermophilus spores; test: Resistance of self-contained biological indicators to hydrogen peroxide sterilization, glucosidase enzyme activity fluorescence readout (ENZ+)
Description: (§1) PET film (.09 mm thick) was coated with colloidal silica as described in International Publication No. WO2014/189716, which is incorporated herein by reference in its entirety. […] Separate aqueous spore coating solutions were prepared as described in Example 1 with the amino acids shown in table 4 present in the coating solutions. Two microliter aliquots (containing at least 10^6 spores) of the respective spore coating solutions were deposited onto the silica-coated PET film, forming a series of spaced-apart spots on the film. The spore coated films were dried in a 60° C. incubator for 12 minutes. Circular discs (hereinafter, “coated carriers”) of the PET film, each disc including one of the dried spots, were punched out and were used to assemble self-contained biological indicators (BI) similar to that shown in FIG. 1 of International Publication No. WO2014/189716. The coated carriers described above were placed into the “spore carrier 135” shown in FIG. 1 of International Publication No. WO2014/189716. Each self-contained BI comprised a polycarbonate outer container, a breaker, a cap, and a cap filter. Disposed inside the outer container were a coated carrier along with an ampoule media containing the nutrient medium from 3M ATTEST 1292 Rapid Readout Biological Indicators plus 5g/L methionine (as described in Example 1).
(§2) The self-contained biological indicators with different concentrations of additives (Table 4) were exposed to hydrogen peroxide sterilization in STERRAD NX sterilizer. The sterilization processes were run by manually injecting 1.0 ml of 59% hydrogen peroxide per load, unless specified otherwise. The exposure time was varied to determine the resistance profile of self-contained BIs with different additive formulations. The BIs were activated by pressing down the cap to break the media ampoule. The activated BIs were placed in a bench-top fluorimeter (3M Company, St. Paul, Minn.) to detect fluorescence.
(§3) A self-contained BI that is not completely inactivated (i.e., not all of the spores are killed by the sterilization process) will resume cellular functions upon activation of the BI. The production of glucosidase enzyme by surviving spores is an indication that at least one of the spores have not been inactivated (killed) by the sterilization process. The glucosidase enzyme cleaves the 4-methylumbelliferyl-glucoside (MUG) releasing the fluorescent methyl umbelliferone, which is detected using a bench-top fluorimeter. Growth and proliferation of spores in the self-contained biological indicator can also be detected by a pH change, which may be detected by a color change of the pH indicator in the growth medium.
(§4) Self-contained biological indicators were prepared (with various additives listed in table 4) as described above in this Example. For each additive tested, a lower range and a higher range was used as a preliminary screen to identify additives modulated the resistance of the spores to the sterilant. Five self-contained BIs representing each condition were exposed to hydrogen peroxide sterilization in STERRAD NX sterilizer. The sterilization processes used a constant injection volume (1.0 ml of 59% hydrogen peroxide) and various times (e.g., 20 seconds to 7 minutes) of exposure to the hydrogen peroxide. The self-contained BIs were activated after exposure to the sterilization process and were monitored for fluorescence using a bench-top fluorimeter) and pH based color change (visually). […]
(§5) Self-contained biological indicators (with various additives listed in table 5) were prepared as described in Example 2. The self-contained biological indicators were exposed to hydrogen peroxide in a STERRAD NX sterilizer as described in Example 2. The self-contained BIs were activated after exposure to the sterilization process and were monitored for fluorescence using a bench-top fluorimeter and pH based color change (visually).

[3] = test system: Geobacillus stearothermophilus spores; test: Resistance of self-contained biological indicators to hydrogen peroxide sterilization, growth readout by pH colour change (GRO+)
Description: as §1, §2, §3, §4, §5

[4] = Table 4, modulator 0.01 weight percent in spore coating solution, H2O2 exposure 30 sec.
[5] = Table 4, modulator 0.01 weight percent in spore coating solution, H2O2 exposure 60 sec.
[6] = Table 4, modulator 0.01 weight percent in spore coating solution, H2O2 exposure 90 sec.
[7] = Table 4, modulator 0.01 weight percent in spore coating solution, H2O2 exposure 3 min.
[8] = Table 4, modulator 0.01 weight percent in spore coating solution, H2O2 exposure 7 min.
[9] = Table 4, modulator 0.1 weight percent in spore coating solution, H2O2 exposure 30 sec.
[10] = Table 4, modulator 0.1 weight percent in spore coating solution, H2O2 exposure 60 sec.
[11] = Table 4, modulator 0.1 weight percent in spore coating solution, H2O2 exposure 90 sec.
[12] = Table 4, modulator 0.1 weight percent in spore coating solution, H2O2 exposure 3 min.
[13] = Table 4, modulator 0.1 weight percent in spore coating solution, H2O2 exposure 7 min.

## N[C@@H](CCS)C(=O)O [L-homocysteine]
[1]; 2.5 micromoles of L-homocysteine, seen with 0.6 ml and 0.8 ml of 59% H2O2
  resistance of spores to H2O2 compared to 0 micromoles of L-homocysteine: decrease in resistance of spores
[1]; 2.5 micromoles of homocysteine, 0.1 ml of 59% H2O2 (94 mg × Sec/L)
  percentage of self-contained biological indicators that showed observable growth (pH indicator change): 100%
[1]; 2.5 micromoles of homocysteine, 0.2 ml of 59% H2O2 (222 mg × Sec/L)
  percentage of self-contained biological indicators that showed observable growth (pH indicator change): 80%
[1]; 2.5 micromoles of homocysteine, 0.4 ml of 59% H2O2 (458 mg × Sec/L)
  percentage of self-contained biological indicators that showed observable growth (pH indicator change): 60%
[1]; 2.5 micromoles of homocysteine, 0.6 ml of 59% H2O2 (689 mg × Sec/L)
  percentage of self-contained biological indicators that showed observable growth (pH indicator change): 60%
[1]; 2.5 micromoles of homocysteine, 0.8 ml of 59% H2O2 (842 mg × Sec/L)
  percentage of self-contained biological indicators that showed observable growth (pH indicator change): 20%
[1]; 5.0 micromoles of L-homocysteine, all kill with 0.4 ml of 59% H2O2
  resistance of spores to H2O2: reduced the resistance of spores significantly
[1]; 5.0 micromoles of homocysteine, 0.1 ml of 59% H2O2 (94 mg × Sec/L)
  percentage of self-contained biological indicators that showed observable growth (pH indicator change): 100%
[1]; 5.0 micromoles of homocysteine, 0.2 ml of 59% H2O2 (222 mg × Sec/L)
  percentage of self-contained biological indicators that showed observable growth (pH indicator change): 40%
[1]; 5.0 micromoles of homocysteine, 0.4 ml of 59% H2O2 (458 mg × Sec/L)
  percentage of self-contained biological indicators that showed observable growth (pH indicator change): 0%
[1]; 5.0 micromoles of homocysteine, 0.6 ml of 59% H2O2 (689 mg × Sec/L)
  percentage of self-contained biological indicators that showed observable growth (pH indicator change): 0%
[1]; 5.0 micromoles of homocysteine, 0.8 ml of 59% H2O2 (842 mg × Sec/L)
  percentage of self-contained biological indicators that showed observable growth (pH indicator change): 0%

## O=C(O)[C@@H]1CCCN1 [L-proline, reference compound]
[2]; [4]
  percentage of self-contained biological indicators positive for glucosidase enzyme activity (ENZ+): 100%
[2]; [5]
  percentage of self-contained biological indicators positive for glucosidase enzyme activity (ENZ+): 100%
[2]; [6]
  percentage of self-contained biological indicators positive for glucosidase enzyme activity (ENZ+): 100%
[2]; [7]
  percentage of self-contained biological indicators positive for glucosidase enzyme activity (ENZ+): 0%
[2]; [8]
  percentage of self-contained biological indicators positive for glucosidase enzyme activity (ENZ+): 0%
[2]; [9]
  percentage of self-contained biological indicators positive for glucosidase enzyme activity (ENZ+): 100%
[2]; [10]
  percentage of self-contained biological indicators positive for glucosidase enzyme activity (ENZ+): 100%
[2]; [11]
  percentage of self-contained biological indicators positive for glucosidase enzyme activity (ENZ+): 100%
[2]; [12]
  percentage of self-contained biological indicators positive for glucosidase enzyme activity (ENZ+): 0%
[2]; [13]
  percentage of self-contained biological indicators positive for glucosidase enzyme activity (ENZ+): 0%
[3]; Example 2 / Comparative Example 1 (Table 4), fluorescence and growth readouts
  sensitivity of the biological indicator to the sterilization process relative to the control with no additives: did not result in an increased sensitivity
[3]; [4]
  percentage of self-contained biological indicators positive for growth (GRO+): 100%
[3]; [5]
  percentage of self-contained biological indicators positive for growth (GRO+): 100%
[3]; [6]
  percentage of self-contained biological indicators positive for growth (GRO+): 100%
[3]; [7]
  percentage of self-contained biological indicators positive for growth (GRO+): 0%
[3]; [8]
  percentage of self-contained biological indicators positive for growth (GRO+): 0%
[3]; [9]
  percentage of self-contained biological indicators positive for growth (GRO+): 100%
[3]; [10]
  percentage of self-contained biological indicators positive for growth (GRO+): 100%
[3]; [11]
  percentage of self-contained biological indicators positive for growth (GRO+): 100%
[3]; [12]
  percentage of self-contained biological indicators positive for growth (GRO+): 0%
[3]; [13]
  percentage of self-contained biological indicators positive for growth (GRO+): 0%
